Consider 23 compounds from patent publication US20080051418A1, “Arylalkanoic Acid Derivative” (priority 2004, published 2008).

With `CCOc1cc(CCCOc2c(CC(=O)O)cccc2OC)n(Cc2ccc(Cl)cc2Cl)n1` [Example 26, (2-{3-[1-(2,4-dichlorobenzyl)-3-ethoxy-1H-pyrazol-5-yl]propoxy}-3-methoxyphenyl)acetic acid], the melting point (in general, the temperature, or range, at which the solid turns liquid) is 109 to 110 °C.
The value for `CCCOc1cc(CCCOc2nn(Cc3ccccc3)cc2CC(=O)O)n(Cc2ccc(Cl)cc2Cl)n1` [Example 89, (1-benzyl-3-{3-[1-(2,4-dichlorobenzyl)-3-propoxy-1H-pyrazol-5-yl]propoxy}-1H-pyrazol-4-yl)acetic acid] was 132 to 134 °C; that for `CC(C)Oc1cc(COc2ccc(C(F)(F)F)cc2)cc(COc2cc(CCC(=O)O)n(-c3ccccc3)n2)c1` [Example 202, 3-{3-[(3-isopropoxy-5-{[4-(trifluoromethyl)phenoxy]methyl}benzyl)oxy]-1-phenyl-1H-pyrazol-5-yl}propanoic acid] was 55 to 58 °C.
`CCOc1cccc(CC(=O)O)c1OCCCc1cc(OC(C)C)nn1Cc1ccc(Cl)cc1Cl` [Example 23, (2-{3-[1-(2,4-dichlorobenzyl)-3-isopropoxy-1H-pyrazol-5-yl]propoxy}-3-ethoxyphenyl)acetic acid] gave a melting point of 132 to 133 °C.
In the case of `CCc1cccc(CC(=O)O)c1OCCCc1cc(OC(C)C)nn1Cc1ccc(Cl)cc1Cl` [Example 29, (2-{3-[1-(2,4-dichlorobenzyl)-3-isopropoxy-1H-pyrazol-5-yl]propoxy}-3-ethylphenyl)acetic acid], the melting point was 98 to 99 °C.
`COCCOc1ccc(CCCOc2cc(CCC(=O)O)n(C)n2)c(OCc2ccc(C(F)(F)F)cc2)c1` [Example 169, 3-{3-[3-(4-(2-methoxyethoxy)-2-{[4-(trifluoromethyl)benzyl]oxy}phenyl)propoxy]-1-methyl-1H-pyrazol-5-yl}propanoic acid]: the melting point fell in the range of 110 to 111 °C.
With `CCOc1cc(Cl)ccc1Cn1nc(OC(C)C)cc1CCCOc1c(CC(=O)O)cccc1OC` [Example 69, (2-{3-[1-(4-chloro-2-ethoxybenzyl)-3-isopropoxy-1H-pyrazol-5-yl]propoxy}-3-methoxyphenyl)acetic acid], the melting point was 98 to 99 °C.
Compound `CCCOc1cc(COc2c(CC)cccc2CC(=O)O)n(Cc2ccc3ccccc3n2)n1` [Example 7, (3-ethyl-2-{[3-propoxy-1-(quinolin-2-ylmethyl)-1H-pyrazol-5-yl]methoxy}phenyl)acetic acid] returned a melting point of 110 to 111 °C.
`CC(C)Oc1cc(Oc2ccc(C(F)(F)F)cn2)ccc1CCCOc1cc(CCC(=O)O)n(C)n1` [Example 152, 3-{3-[3-(2-isopropoxy-4-{[5-(trifluoromethyl)pyridin-2-yl]oxy}phenyl)propoxy]-1-methyl-1H-pyrazol-5-yl}propanoic acid] gave a melting point of 128 to 130 °C.
As to `CC(C)c1nc(CCCOc2ncccc2CC(=O)O)c(Cc2ccc(Cl)cc2Cl)s1` [Example 53, (2-{3-[5-(2,4-dichlorobenzyl)-2-isopropyl-1,3-thiazol-4-yl]propoxy}pyridin-3-yl)acetic acid], the melting point was 106 to 107 °C.
`CCOc1cc(COc2cc(CCC(=O)O)n(-c3ccccc3)n2)cc(COc2ccc(Cl)cc2Cl)c1` [Example 204, 3-[3-({3-[(2,4-dichlorophenoxy)methyl]-5-ethoxybenzyl}oxy)-1-phenyl-1H-pyrazol-5-yl]propanoic acid] showed a melting point of 151.5 to 152 °C.
The value for `CCn1nc(OCCCc2ccc(OCCOC)cc2OCc2ccc(C(F)(F)F)cc2)cc1CCC(=O)O` [Example 170, 3-{1-ethyl-3-[3-(4-(2-methoxyethoxy)-2-{[4-(trifluoromethyl)benzyl]oxy}phenyl)propoxy]-1H-pyrazol-5-yl}propanoic acid] was 112 to 113 °C; that for `CC(C)Oc1cc(COc2cc(CCC(=O)O)n(-c3ccccc3)n2)cc(COc2ncc(C(F)(F)F)cc2Cl)c1` [Example 203, 3-(3-{[3-({[3-chloro-5-(trifluoromethyl)pyridin-2-yl]oxy}methyl)-5-isopropoxybenzyl]oxy}-1-phenyl-1H-pyrazol-5-yl)propanoic acid] was 140 to 142 °C; that for `CCOc1nn(Cc2ccc(Cl)cc2Cl)cc1CCCOc1cc(CCC(=O)O)n(-c2ccccc2)n1` [Example 183, 3-(3-{3-[1-(2,4-dichlorobenzyl)-3-ethoxy-1H-pyrazol-4-yl]propoxy}-1-phenyl-1H-pyrazol-5-yl)propanoic acid] was 132 to 133 °C.
`CC(C)Oc1cc(CCCOc2cc(CCC(=O)O)n(C)n2)cc(COc2ccc(Cl)cc2Cl)c1` [Example 197, 3-[3-(3-{3-[(2,4-dichlorophenoxy)methyl]-5-isopropoxyphenyl}propoxy)-1-methyl-1H-pyrazol-5-yl]propanoic acid] showed a melting point of 116 to 120 °C.
Regarding `COc1cccc(CC(=O)O)c1OCCCc1cc(OC(C)C)nn1Cc1ccc2ccccc2n1` [Example 10, (2-{3-[3-isopropoxy-1-(quinolin-2-ylmethyl)-1H-pyrazol-5-yl]propoxy}-3-methoxyphenyl)acetic acid], the melting point lay in the range of 129 to 130 °C.
For the compound `COCCOc1ccc(CCCOc2cc(CCC(=O)O)n(C)n2)c(OCc2ccc(Cl)cc2Cl)c1` [Example 164, 3-(3-{3-[2-[(2,4-dichlorobenzyl)oxy]-4-(2-methoxyethoxy)phenyl]propoxy}-1-methyl-1H-pyrazol-5-yl)propanoic acid], the melting point lay in the range of 128.5 to 129.5 °C.
`CCOc1cc(Cc2ccccn2)ccc1CCCOc1c(CC(=O)O)cccc1OC` [Example 125, (2-{3-[2-ethoxy-4-(pyridin-2-ylmethyl)phenyl]propoxy}-3-methoxyphenyl)acetic acid] came in with a melting point of 97.5 to 98.5 °C.
`O=C(O)CCc1cc(OCc2cc(COc3ccc(Cl)cc3Cl)cc(OCc3ccccc3)c2)nn1-c1ccccc1` [Example 198, 3-[3-({3-(benzyloxy)-5-[(2,4-dichlorophenoxy)methyl]benzyl}oxy)-1-phenyl-1H-pyrazol-5-yl]propanoic acid] yielded a melting point of 126 to 130 °C.
`CCCOc1cc(CCCOc2nn(Cc3ccccc3)cc2CC(=O)O)n(Cc2ccc(F)cc2F)n1` [Example 90, (1-benzyl-3-{3-[1-(2,4-difluorobenzyl)-3-propoxy-1H-pyrazol-5-yl]propoxy}-1H-pyrazol-4-yl)acetic acid] had a melting point of 94 to 95 °C.
Take `CC(C)Oc1cc(CCCOc2cc(CCC(=O)O)n(-c3ccccc3)n2)n(Cc2ccc(Cl)cc2Cl)n1` [Example 192, 3-(3-{3-[1-(2,4-dichlorobenzyl)-3-isopropoxy-1H-pyrazol-5-yl]propoxy}-1-phenyl-1H-pyrazol-5-yl)propanoic acid]: the melting point fell in the range of 145.5 to 147.5 °C.
`CCc1cccc(CC(=O)O)c1OCCn1cc(CCOc2ncc(C(F)(F)F)cc2Cl)c(OC(C)C)n1` [Example 188, (2-{2-[4-(2-{[3-chloro-5-(trifluoromethyl)pyridin-2-yl]oxy}ethyl)-3-isopropoxy-1H-pyrazol-1-yl]ethoxy}-3-ethylphenyl)acetic acid] displayed a melting point of 76.5 to 77.5 °C.
On to `CCc1cccc(CC(=O)O)c1OCCCc1cn(Cc2nc(-c3ccccc3)oc2C)nc1C(C)C` [Example 54, [3-ethyl-2-(3-{3-isopropyl-1-[(5-methyl-2-phenyl-1,3-oxazol-4-yl)methyl]-1H-pyrazol-4-yl}propoxy)phenyl]acetic acid], for which the melting point fell in the range of 94 to 95 °C.
